Source: the supplement of paper PMC10627819

Key:
Assay in all cases: Bliss interaction score (quartile over a dose matrix) (fitness difference); higher = more antagonism (negative = synergy)
S. aureus DSM 20231 = tested on: S. aureus DSM 20231
Method in brief: (§1)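 The Bliss score is observed minus expected fitness, where expected fitness is the product of the single-drug fitness values inferred from the combination data. Fitness is the OD595 at the onset of stationary phase over the plate's robust no-drug mean, capped at 1. Scores are summarised by quartiles over technical, biological and donor/recipient replicates.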

S. aureus Newman = tested on: S. aureus Newman
Method in brief: as §1

B. subtilis 168 = tested on: B. subtilis 168
Method in brief: as §1

S. pneumoniae D39V = tested on: S. pneumoniae D39V
Method in brief: as §1
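Note: first quartile when negative (synergy) and third quartile when positive (antagonism).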

SMILES	Bliss interaction score (S. aureus DSM 20231)	Bliss interaction score (S. aureus Newman)	Bliss interaction score (B. subtilis 168)	Bliss interaction score (S. pneumoniae D39V)	also measured
O=C(O)[C@H]1/C(=C/CO)O[C@@H]2CC(=O)N21 [Clavulanic] + CC[C@H]1OC(=O)[C@H](C)C(=O)[C@H](C)[C@@H](O[C@@H]2O[C@H](C)C[C@H](N(C)C)[C@H]2O)[C@](C)(OC)C[C@@H](C)C(=O)[C@H](C)[C@H]2N(CCCCn3cnc(-c4cccnc4)c3)C(=O)O[C@]12C [Telithromycin]	-0.0742	0.122	0.0437	-0.0431	
O=C(O)[C@H]1/C(=C/CO)O[C@@H]2CC(=O)N21 [Clavulanic] + CN(C)[C@@H]1C(O)=C(C(N)=O)C(=O)[C@@]2(O)C(O)=C3C(=O)c4c(O)ccc(Cl)c4[C@@](C)(O)[C@H]3C[C@@H]12 [Clortetracycline]	-0.24	0.161	0.0785	-0.0427	
O=C(O)[C@H]1/C(=C/CO)O[C@@H]2CC(=O)N21 [Clavulanic] + CO[C@H]1/C=C/O[C@@]2(C)Oc3c(C)c(O)c4c(O)c(c(/C=N/N5CCN(C)CC5)c(O)c4c3C2=O)NC(=O)/C(C)=C\C=C\[C@H](C)[C@H](O)[C@@H](C)[C@@H](O)[C@@H](C)[C@H](OC(C)=O)[C@@H]1C [Rifampicin]	0.112	-0.0368	0.0612	-0.0766	
CC[C@H]1OC(=O)[C@H](C)C(=O)[C@H](C)[C@@H](O[C@@H]2O[C@H](C)C[C@H](N(C)C)[C@H]2O)[C@](C)(OC)C[C@@H](C)C(=O)[C@H](C)[C@H]2N(CCCCn3cnc(-c4cccnc4)c3)C(=O)O[C@]12C [Telithromycin] + CN(C)c1cc(NC(=O)CNC(C)(C)C)c(O)c2c1C[C@H]1C[C@H]3[C@H](N(C)C)C(O)=C(C(N)=O)C(=O)[C@@]3(O)C(O)=C1C2=O [Tigecycline]	-0.0261	0.0378	0.0616	-0.107	
CNC(C)C1CCC(N)C(OC2C(N)CC(N)C(OC3OCC(C)(O)C(NC)C3O)C2O)O1 (configuration not stated) [Gentamicin] + CC[C@H]1OC(=O)[C@H](C)C(=O)[C@H](C)[C@@H](O[C@@H]2O[C@H](C)C[C@H](N(C)C)[C@H]2O)[C@](C)(OC)C[C@@H](C)C(=O)[C@H](C)[C@H]2N(CCCCn3cnc(-c4cccnc4)c3)C(=O)O[C@]12C [Telithromycin]					Bliss interaction score (S. aureus DSM 20231; main component drawn): 0.0492; Bliss interaction score (S. aureus Newman; main component drawn): 0.0544; Bliss interaction score (B. subtilis 168; main component drawn): 0.0903; Bliss interaction score (S. pneumoniae D39V; main component drawn): 0.0542
CC1=C(C(=O)O)N2C(=O)[C@@H](NC(=O)[C@H](N)c3ccccc3)[C@H]2SC1 [Cephalexin] + CC(=O)O[C@H]1C[C@@]2(C)[C@@H](C[C@@H](O)[C@H]3[C@@]4(C)CC[C@@H](O)[C@@H](C)[C@@H]4CC[C@@]32C)/C1=C(\CCC=C(C)C)C(=O)O [Fusidic acid]	0.0436	0.0547	0.0683	0.143	
CC1=C(C(=O)O)N2C(=O)[C@@H](NC(=O)[C@H](N)c3ccccc3)[C@H]2SC1 [Cephalexin] + C[C@@H]1O[C@@H]1P(=O)(O)O [Fosfomycin]	0.038	0.134	-0.0491	-0.111	
O=C(O)[C@H]1/C(=C/CO)O[C@@H]2CC(=O)N21 [Clavulanic] + O=C1CN(/N=C/c2ccc([N+](=O)[O-])o2)C(=O)N1 [Nitrofurantoin]	0.039	0.102	0.0868	0.0879	
O=C(O)[C@H]1/C(=C/CO)O[C@@H]2CC(=O)N21 [Clavulanic] + Cc1onc(-c2ccccc2)c1C(=O)N[C@@H]1C(=O)N2[C@@H]1SC(C)(C)[C@@H]2C(=O)O [Oxacillin]	0.0346	0.0727	0.0555	-0.051	
CC[C@H]1OC(=O)[C@H](C)C(=O)[C@H](C)[C@@H](O[C@@H]2O[C@H](C)C[C@H](N(C)C)[C@H]2O)[C@](C)(OC)C[C@@H](C)C(=O)[C@H](C)[C@H]2N(CCCCn3cnc(-c4cccnc4)c3)C(=O)O[C@]12C [Telithromycin] + Oc1cc(Cl)ccc1Oc1ccc(Cl)cc1Cl [Triclosan]	-0.0253	0.0266	0.017	0.0532	
O=C(O)[C@H]1/C(=C/CO)O[C@@H]2CC(=O)N21 [Clavulanic] + Cc1ncc([N+](=O)[O-])n1CCO [Metronidazole]	0.0966	-0.112	0.0385	0.0632	
CC1=C(C(=O)O)N2C(=O)[C@@H](NC(=O)[C@H](N)c3ccccc3)[C@H]2SC1 [Cephalexin] + O=C(N[C@H](CO)[C@H](O)c1ccc([N+](=O)[O-])cc1)C(Cl)Cl [Chloramphenicol]	0.0832	0.0789	-0.069	0.113	
Cc1cc(NS(=O)(=O)c2ccc(N)cc2)no1 [Sulfamethoxazol] + CC[C@H]1OC(=O)[C@H](C)C(=O)[C@H](C)[C@@H](O[C@@H]2O[C@H](C)C[C@H](N(C)C)[C@H]2O)[C@](C)(OC)C[C@@H](C)C(=O)[C@H](C)[C@H]2N(CCCCn3cnc(-c4cccnc4)c3)C(=O)O[C@]12C [Telithromycin]	0.034	0.0359	-0.0301	-0.0611	
C[n+]1ccc(-c2cc[n+](C)cc2)cc1 [Paraquat] + CC[C@H]1OC(=O)[C@H](C)C(=O)[C@H](C)[C@@H](O[C@@H]2O[C@H](C)C[C@H](N(C)C)[C@H]2O)[C@](C)(OC)C[C@@H](C)C(=O)[C@H](C)[C@H]2N(CCCCn3cnc(-c4cccnc4)c3)C(=O)O[C@]12C [Telithromycin]	0.0414	-0.0252	-0.0235	0.0949	
Cc1onc(-c2ccccc2)c1C(=O)N[C@@H]1C(=O)N2[C@@H]1SC(C)(C)[C@@H]2C(=O)O [Oxacillin] + Oc1cc(Cl)ccc1Oc1ccc(Cl)cc1Cl [Triclosan]	0.0454	0.0273	0.025	0.0852	
Cc1onc(-c2ccccc2)c1C(=O)N[C@@H]1C(=O)N2[C@@H]1SC(C)(C)[C@@H]2C(=O)O [Oxacillin] + Cc1c(Cl)cccc1Nc1ccccc1C(=O)O [Tolfenamic]	0.138				
CC[C@H]1OC(=O)[C@H](C)[C@@H](O[C@H]2C[C@@](C)(OC)[C@@H](O)[C@H](C)O2)[C@H](C)[C@@H](O[C@@H]2O[C@H](C)C[C@H](N(C)C)[C@H]2O)[C@](C)(O)C[C@@H](C)CN(C)[C@H](C)[C@@H](O)[C@]1(C)O [Azithromycin] + Cc1c(Cl)cccc1Nc1ccccc1C(=O)O [Tolfenamic]	-0.292				

SMILES	Bliss interaction score (S. aureus DSM 20231)	Bliss interaction score (S. aureus Newman)	Bliss interaction score (B. subtilis 168)	Bliss interaction score (S. pneumoniae D39V)	also measured
CNC(C)C1CCC(N)C(OC2C(N)CC(N)C(OC3OCC(C)(O)C(NC)C3O)C2O)O1 (configuration not stated) [Gentamicin] + CC[C@H](c1ccc(O)cc1)[C@@H](CC)c1ccc(O)cc1 [Hexestrol]					Bliss interaction score (S. aureus DSM 20231; main component drawn): -0.536
CN(C)CCCN1c2ccccc2Sc2ccc(Cl)cc21 [Chlorpromazine] + CC(=O)NC[C@H]1CN(c2ccc(N3CCOCC3)c(F)c2)C(=O)O1 [Linezolid]	-0.236				
CC[C@H]1OC(=O)[C@H](C)[C@@H](O[C@H]2C[C@@](C)(OC)[C@@H](O)[C@H](C)O2)[C@H](C)[C@@H](O[C@@H]2O[C@H](C)C[C@H](N(C)C)[C@H]2O)[C@](C)(O)C[C@@H](C)CN(C)[C@H](C)[C@@H](O)[C@]1(C)O [Azithromycin] + O=C(O)c1cc(-c2ccc(F)cc2F)ccc1O [Diflunisal]	-0.146				
CC[C@H]1OC(=O)[C@H](C)C(=O)[C@H](C)[C@@H](O[C@@H]2O[C@H](C)C[C@H](N(C)C)[C@H]2O)[C@](C)(OC)C[C@@H](C)C(=O)[C@H](C)[C@H]2N(CCCCn3cnc(-c4cccnc4)c3)C(=O)O[C@]12C [Telithromycin] + Cc1ccc(C(C)C)c(O)c1 [Thymol]	-0.222				
CN(C)CCCN1c2ccccc2Sc2ccc(Cl)cc21 [Chlorpromazine] + CN(C)C(=O)C(CCN1CCC(O)(c2ccc(Cl)cc2)CC1)(c1ccccc1)c1ccccc1 [Loperamide]	-0.311				
O=C(O)[C@H]1/C(=C/CO)O[C@@H]2CC(=O)N21 [Clavulanic] + CN[C@@H]1[C@H](O[C@H]2[C@H](O[C@H]3[C@H](O)[C@@H](O)[C@H](N=C(N)N)[C@@H](O)[C@@H]3N=C(N)N)O[C@@H](C)[C@]2(O)C=O)O[C@@H](CO)[C@H](O)[C@H]1O [Streptomycin]		0.218	0.0954	0.0425	
Cc1c(Cl)cccc1Nc1ccccc1C(=O)O [Tolfenamic] + COc1cc(Cc2cnc(N)nc2N)cc(OC)c1OC [Trimethoprim]	-0.185				
Cc1onc(-c2ccccc2)c1C(=O)N[C@@H]1C(=O)N2[C@@H]1SC(C)(C)[C@@H]2C(=O)O [Oxacillin] + CCCSc1nc(N[C@@H]2C[C@H]2c2ccc(F)c(F)c2)c2nnn([C@@H]3C[C@H](OCCO)[C@@H](O)[C@H]3O)c2n1 [Ticagrelor]	0.171				
Cc1cc(NS(=O)(=O)c2ccc(N)cc2)no1 [Sulfamethoxazol] + CCCSc1nc(N[C@@H]2C[C@H]2c2ccc(F)c(F)c2)c2nnn([C@@H]3C[C@H](OCCO)[C@@H](O)[C@H]3O)c2n1 [Ticagrelor]	0.254				
CN1CCC[C@H]1c1cccnc1 [Nicotine] + CC[C@H]1OC(=O)[C@H](C)C(=O)[C@H](C)[C@@H](O[C@@H]2O[C@H](C)C[C@H](N(C)C)[C@H]2O)[C@](C)(OC)C[C@@H](C)C(=O)[C@H](C)[C@H]2N(CCCCn3cnc(-c4cccnc4)c3)C(=O)O[C@]12C [Telithromycin]	-0.342				
CNC(C)C1CCC(N)C(OC2C(N)CC(N)C(OC3OCC(C)(O)C(NC)C3O)C2O)O1 (configuration not stated) [Gentamicin] + CCCSc1nc(N[C@@H]2C[C@H]2c2ccc(F)c(F)c2)c2nnn([C@@H]3C[C@H](OCCO)[C@@H](O)[C@H]3O)c2n1 [Ticagrelor]					Bliss interaction score (S. aureus DSM 20231; main component drawn): -0.576
Cc1c(Cl)cccc1Nc1ccccc1C(=O)O [Tolfenamic] + CN[C@H](CC(C)C)C(=O)N[C@H]1C(=O)N[C@@H](CC(N)=O)C(=O)N[C@H]2C(=O)N[C@H]3C(=O)N[C@H](C(=O)N[C@H](C(=O)O)c4cc(O)cc(O)c4-c4cc3ccc4O)[C@H](O)c3ccc(c(Cl)c3)Oc3cc2cc(c3O[C@@H]2O[C@H](CO)[C@@H](O)[C@H](O)[C@H]2O[C@H]2C[C@](C)(N)[C@H](O)[C@H](C)O2)Oc2ccc(cc2Cl)[C@H]1O [Vancomycin]	0.124				
CNC(C)C1CCC(N)C(OC2C(N)CC(N)C(OC3OCC(C)(O)C(NC)C3O)C2O)O1 (configuration not stated) [Gentamicin] + O=C(O)Cc1cc(I)c(Oc2ccc(O)c(I)c2)c(I)c1 [Tiratricol]					Bliss interaction score (S. aureus DSM 20231; main component drawn): 0.264
O=C(O)[C@H]1/C(=C/CO)O[C@@H]2CC(=O)N21 [Clavulanic] + C/C(=C\C(=O)OCCCCCCCCC(=O)O)C[C@@H]1OC[C@H](C[C@@H]2O[C@H]2[C@@H](C)[C@H](C)O)[C@@H](O)[C@H]1O [Pseudomonic acid]			-0.0513	-0.0849	
CNC(C)C1CCC(N)C(OC2C(N)CC(N)C(OC3OCC(C)(O)C(NC)C3O)C2O)O1 (configuration not stated) [Gentamicin] + CC(C)Cc1ccc(C(C)C(=O)O)cc1 [Ibuprofen]					Bliss interaction score (S. aureus DSM 20231; main component drawn): -0.442
CN(C)CCCN1c2ccccc2Sc2ccc(Cl)cc21 [Chlorpromazine] + C[C@H]1c2cccc(O)c2C(=O)C2=C(O)[C@]3(O)C(=O)C(C(N)=O)=C(O)[C@@H](N(C)C)[C@@H]3[C@@H](O)[C@@H]21 [Doxycycline]	-0.263				
c1ccc2c(CC3=NCCN3)cccc2c1 [Naphazoline] + COc1cc(Cc2cnc(N)nc2N)cc(OC)c1OC [Trimethoprim]	0.236				
